Measured values: patent publication US20100003326A1, “DRUG DELIVERY DEVICE COMPRISING A PHARMACEUTICALLY OR BIOLOGICALLY ACTIVE COMPONENT AND AN INFRARED ABSORBING COMPOUND” (DOLPHYS TECHNOLOGIES B.V., priority 2006, published 2010)

What was measured:
[1] = Infrared-triggered release of ibuprofen from P(BMA-MMA) disc in physiological buffer; format: physicochemical; conditions: physiological buffer at 30° C.; for speed of release of ibuprofen from the disc: P(BMA-MMA) disc, 290 ppm Lumogen IR 788, 5 wt % ibuprofen
Experimental: An object consisting of a pressed circular disc with a diameter of 2.5 cm and thickness of 2 mm was placed in a holder in a vessel completely containing 90 mL physiological buffer at 30° C. […] Addition of ibuprofen led to a lowering of the Tg to about 35° C. The disc was irradiated perpendicularly to the surface with the same laser diode module as in Example 1a, the laser power being 750 mW and the distance between fiber exit and disc 50 mm. The water layer between sample and disc was approximately 20 mm. A glass lid was placed on the vessel to prevent water evaporation. The vessel was completely filled with water, thus avoiding reflection and refraction effects at an additional air/water interface. The near-infrared irradiation only encountered an air to glass and a glass to water transition. Irradiation was applied in an alternating manner, periods of irradiation of 4 hours being alternated by periods of 20 hours without irradiation.

[2] = Ibuprofen blood plasma concentration after infrared triggering of subcutaneous strand in rat; format: in vivo; conditions: sc; for concentration at 1 day: first time; for concentration at 2 day: second time (next day)
Experimental: An object consisting of a compounded strand with a diameter of 2.0 mm and a length of 2.0 cm. […] Addition of ibuprofen led to a lowering of the Tg to about −1° C.
The strand was placed subcutaneously in a rat. After 1 day, the strand was irradiated perpendicularly to the length axis with the same laser diode module as in Example 1a, for 15 minutes, the laser power set at 750 mW and the distance between fiber exit and the skin of the rat being 20 mm. The next day this procedure was repeated again.
Blood samples were taken before, during and after triggering on both days. As a consequence of irradiation, the concentration of ibuprofen in the blood plasma increased the first time from below 5 ng/ml (no detection peak of LC-MS/MS was found) to 25 ng/ml and the second time from below 5 ng/ml (no peak was found) to 19 ng/ml.

[3] = subcutaneous strand with 40 wt % ibuprofen, as a consequence of 15 minutes irradiation at 750 mW

CC(C)Cc1ccc(C(C)C(=O)O)cc1 (stereo not shown) [ibuprofen]
release of ibuprofen after stopping irradiation ([1]; after stopping irradiation, same disc): fell virtually immediately to the base value
speed of release of ibuprofen from the disc ([1]; during irradiation (785 nm laser, 750 mW, 4 hours periods)): around 3.9×10^−6 g/h
speed of release of ibuprofen from the disc ([1]; without irradiation (base value)): less than 1×10^−6 g/h
concentration at 1 day ([2]; subcutaneous poly(L,DL-Lactide) strand with 40 wt % ibuprofen, before irradiation, LC-MS/MS): < 5 ng/mL
concentration at 1 day [2, 3]: 25 ng/mL
concentration at 2 day [2, 3]: 19 ng/mL
concentration at 2 day ([2]; subcutaneous strand with 40 wt % ibuprofen, before irradiation, LC-MS/MS): < 5 ng/mL
